Patent US20250367290A1, “ENGINEERED STEM CELLS AND USES THEREOF” (Umoja Biopharma, Inc., priority 2022, published 2025)

Key:
[1] = test system: Burkitt's lymphoma tumor cells; assay: RACR-iCIL co-culture cytotoxicity with or without rituximab; type: cell-based; settings: added to RACR-iCILs
Experimental: (§1) In a similar experiment, RACR-iCILs were cocultured with Burkitt's lymphoma tumor cells or non-Hodgkin's lymphoma tumor cells at a ratio of 2.5:1, 10:1, or 0:1, and stimulated with and without rapamycin and/or cytokines. Additional groups included rituximab. Cytotoxicity was determined by imaging cells across 40 hours, as described in Example 6.

[2] = test system: non-Hodgkin's lymphoma tumor cells; assay: as above; type: cell-based; settings: added to RACR-iCILs
Experimental: as §1

[3] = test system: PSMA-positive human prostate cancer cells; settings: DUPA-(99m) Tc; cited from earlier work
TagCAR-RACR iCIL cells = assay: RACR-driven differentiation and expansion of iCIL cells from Day 26 lymphoid progenitors; type: cell-based, human; settings: AP21967 100 nM, no other cytokine
From the text: The RACR-system was utilized for differentiation to iPSC-derived CIL cells (iCIL cells). The iPSC cell line ATCC-BXS0117 (ATCC #ACS-1031) was differentiated into lymphoid progenitors through the STEMdiff NK cell kit (STEMCELL® Technologies, #100-0170) as described in Example 2 above, up until the Day 26 timepoint. The percentage of cells containing common lymphoid progenitors (CD45+/CD5+/CD7+), CIL precursors (CD45+/CD5−/CD7+), and early CIL cells (CD45+/CD5−/CD7+/CD56+) is seen in FIG. 3D with ˜50% of the cells presenting as CIL precursors and ˜25% of total cells presenting as early CIL cells. In this study, Day 26 cells were pelleted and placed in a CIL expansion media at 2×10^6 cells/mL containing (IL-2, IL-15, IL-21, IL-18, IL-7 in complete RPMI media: RPMI1640, 10% FBS, 1× Pen-Strep, and 1× Glutamax). […]
At Day 27, the cells were transduced with either VSV-G lentivirus with the payload of Tag (anti-FITC) CAR-P2A-FRB-P2A-RACR at an MOI 10 with 10 µg/mL of protamine sulfate or treated with 10 μg/mL or protamine sulfate alone (Mock). […] An aliquot of cells was collected weekly, counted on the Vicell Blu automated cell counter, and stained for CD16 clone 3G8, CD56 clone HCD56, CD45 clone 2D1, CD5 clone L17F12, CD7 clone CD7-6B7 and anti-FITC CAR (TagCAR) detection through FITC-AF647.

RACR-CAR+ cells = assay: Differentiation of RACR-transduced CLP into CIL cells with or without common gamma chain cytokines; type: cell-based, human
RACR-iCILs = assay: Proliferation of D47 RACR-iCILs; type: cell-based; settings: rapalog 100 nM
Experimental: RACR-iCILs were generated similar to as described in FIG. 18A and FIG. 18B except without SCF and TPO included in the HP medium as described in Example 9 and FIG. 17A. Data shown are from two BE-RACR iPSC clones. At D40 RACR-iCILs were incubated for one week in a maturation medium containing IL-2, IL-7, IL-12, IL-15, IL-18 and activation beads (anti-CD2/NKp46). RACR-iCILs were then incubated with breast adenocarcinoma MDA-MB23 1 cells expressing a nuclear fluorescent protein at a 10:1 […] ratio in the presence of medium alone, cytokines (IL-2/IL-7/IL-15), or rapalog (100 nM). Cell mixtures were placed into an IncuCyte fluorescent microscope and imaged every 2 hours. The number of MDA-MB23 1 cells was quantified over time via a fluorescent marker and graphed as the ratio of MDA-MB23 1 cells compared to time 0 (time 0 is equal to one). […] RACR-iCILs were then collected, placed in fresh media, and then re-exposed to MDA-MB23 1 cells for a rechallenge (FIG. 19A). Proliferation of D47 RACR-iCILs was also evaluated in different cytokine treatments or rapalog (100 nM).

wildtype iPSCs = assay: iPSC confluency after four days of rapamycin; type: cell-based, human; settings: four days of treatment
Experimental: (§2) RACR requires rapamycin for activation; however, rapamycin inhibits cell growth. To generate rapamycin resistant cells, the FKBP12 gene was knocked-out. […] In the absence of FKBP12, rapamycin cannot interact with the mTOR complex and thus loses its inhibitory capacity. The efficiency of the knockout was determined by Sanger sequencing. Con1, Con2, or Con3 indicate different electroporation conditions for CRISPR-Cas9 based editing resulting in differing levels of knockout. Phase-contrast images reveal normal iPSC morphology in both wild type and FKBP12 KO cells, FIG. 16B, right panel. The confluency of wildtype iPSCs after four days of treatment with varying doses of rapamycin with inhibition of growth at 1 nM rapamycin or higher is shown in FIG. 16C. […] The ability of clonal FKBP12 KO iPSCs to differentiate to hematopoietic progenitors (HPs) in the presence of rapamycin is shown in FIG. 16E.

FKBP12 KO iPSCs = assay: iPSC confluency during four days of rapamycin; type: cell-based, human; settings: four days of treatment
Experimental: as §2

[4] = test system: hematopoietic progenitors (CD34+/CD43+/CD45+); assay: HP differentiation phase: rapamycin requirement; type: cell-based
Experimental: RACR iPSCs (edited B2M-EF1a-RACR and knocked out for FKBP12) were cultured in media, as described in Example 9. At day 0-2, embryoid bodies (EBs) were generated from a single cell suspension of iPSCs in STEMdiff APEL 2 Medium (STEMCELL Technologies) supplemented with BMP4, FGF2, VEGF, Y27632, and +/− rapalog (RL; AP21967) or +/− rapamycin (RM). EBs were formed using plates comprising aggregates of microwells (e.g. Aggrewell™ 800 plates) at 500 iPSC/EB or 1000 iPSC/EB, as described in Example 9 and shown in FIG. 34. As shown in FIG. 35A-B, higher iPSC confluency at the start of differentiation contributes to a higher HP yield. Further, a range of 200-250 iPSC/EBs seeded in microwells is optimal to achieve the highest HP yield on day 15 (FIG. 35C).
The differentiating EBs were moved to non-tissue culture treated 6-well plates (Corning) at day 6 and fresh HP Medium was added. Every 3 days from days 3-15, half of the media was replaced with HP Medium.

iCIL cells = assay: iCIL differentiation and expansion in bioreactors; type: cell-based; settings: iCIL differentiation phase
Experimental: At Day 15 of culture, the differentiated cells were continued in culture for up to 40 days for iCIL cell generation. At Day 21, the GRex bioreactor was seeded with the cells, as described in Example 13. […] Lower seeding densities on days 15 and 24 contributed to increased iCIL yields, while higher seeding densities contributed to higher iCIL yields on Days 30-33 (FIG. 39B). In another experiment, this step was repeated with two different stirred-tank bioreactors at various stages in the protocol.
Thus, Aim V was used as the base medium for the iCIL differentiation phase. Components and supplements in the Aim V medium used during the iCIL differentiation phase were tested for their effect on iCIL yield and cytotoxicity.

Compound: rituximab: antibody added to RACR-iCIL co-cultures with lymphoma tumor cells
- further increase of tumor killing [1]: 10%
- further increase of tumor killing [2]: 10%

Compound: O=C(O)CC[C@H](NC(=O)N[C@@H](CCC(=O)O)C(=O)O)C(=O)O [DUPA]
- Kd [3]: 0.014 µM

Compound: CO[C@@H]1C[C@H](C[C@H](C)C2CC(=O)[C@@H](C)/C=C(\C)[C@@H](O)[C@@H](OC)C(=O)[C@H](C)C[C@@H](C)/C=C/C=C/C=C(\C)[C@H](c3c[nH]c4c(C)cccc34)C[C@H]3CC[C@@H](C)[C@@](O)(O3)C(=O)C(=O)N3CCCC[C@H]3C(=O)O2)CC[C@@H]1O (some centres unmarked) [AP21967]
- iCIL expansion and differentiation (TagCAR-RACR iCIL cells): sufficient to drive iCIL expansion in the absence of any other cytokine signaling
- percent of RACR-CAR+CD56+ cells (RACR-CAR+ cells; 4 nM AP21967, all media conditions, Day 40): increase in the percent of RACR-CAR+CD56+ cells
- fold change in RACR-CAR+ cells (RACR-CAR+ cells; UM729 alone (None) media plus rapalog): largest fold change in RACR-CAR+ cells
- total RACR-iCILs one week after stimulation (RACR-iCILs): supported RACR-iCIL growth

Compound: CO[C@H]1C[C@@H]2CC[C@@H](C)[C@@](O)(O2)C(=O)C(=O)N2CCCC[C@H]2C(=O)O[C@H]([C@H](C)C[C@@H]2CC[C@@H](O)[C@H](OC)C2)CC(=O)[C@H](C)/C=C(\C)[C@@H](O)[C@@H](OC)C(=O)[C@H](C)C[C@H](C)/C=C/C=C/C=C/1C [rapamycin]
- rapamycin dose with inhibition of growth (confluency) (wildtype iPSCs): ≥ 1 nM
- rapamycin doses with robust growth (confluency) (FKBP12 KO iPSCs): up to 100 nM
- lowest rapamycin concentration sufficient to produce comparable HP yields [4]: 3.1 nM
- lowest rapamycin concentration sufficient to expand iCIL cells (iCIL cells): 6.2 nM
